# Reference: patent US11591309B2, “Manufacturing method for and insecticidal compositions comprising thiocyclam hydrochloride” (Arysta L[…] America, LLC, priority 2016, dated 2023)
# Legend:
# Format in all cases: in vivo
# [1] = test system: Soybean looper, Chrysodeixis includens—3rd larval stage; assay: Soybean looper 3rd larval stage bioassay by diet surface incorporation, mortality
# From the text: Soybean looper, Chrysodeixis includens—3rd larval stage • Bioassay by diet surface incorporation • Mortality assessment 3 days after treatment • a.i. refers to active ingredient
# (§1) LC stands for “Lethal Concentration”. LC values refer to the concentration of a chemical required to kill a certain proportion of a population of pests. The concentration of the chemical that kills 50 percent of the pests during the observation period is the LC50 value and a concentration that kills 90 percent of a population is LC90.
# [2] = test system: Aphids Myzus persicae—larvae; assay: Aphid larvae on radish, boom sprayer application (IRAC no 019 adapted), mortality
# From the text: Aphids Myzus persicae—larvae • Study based on IRAC no 019 methods, application method adapted • Plant: radish • Application on petri dish with larvae with a boom sprayer apparatus • Assessment of mortality 3 and 4 days after application • a.i. refers to active ingredient
# (§2) LD stands for “Lethal Dose”. LD50 is the amount of an ingested substance that kills 50 percent of a test sample and […] is the lethal dose that kills 90 percent of the test sample.
# [3] = test system: Codling moth, Cydiapomonella—neonate larvae; assay: Codling moth neonate larvae bioassay by diet incorporation, mortality; conditions: for LC50: Cydia pomonella, 48 h; for LC50 / LC90: mortality 2 days after treatment (D + 2), diet incorporation
# From the text: Codling moth, Cydiapomonella—neonate larvae • Bioassay by diet incorporation • Mortality assessment 2 days after treatment • a.i. refers to active ingredient
# as §1
# [4] = test system: White flies, Trialeurodes vaporarium—larvae; assay: White fly larvae on bean, boom sprayer application (IRAC no 015 adapted), mortality; conditions: for LD50 / LD90: boom sprayer
# From the text: White flies, Trialeurodes vaporarium—larvae • Study based on IRAC no 015 methods, stage and application method adapted • Plant: bean • Application: On the petri dish with larvae with a boom sprayer apparatus • Assessment of mortality at 7, 9 and 14 days after application • a.i. refers to active ingredient
# as §2
# [5] = mortality 3 days after treatment (D + 3), diet surface incorporation
Structure (SMILES),"LC90 [1, 5]","LD50 ([2]; D +3, radish) [g a.i./ha]","LD90 ([2]; D +3, radish) [g a.i./ha]","LD50 ([2]; D +4, radish) [g a.i./ha]","LD90 ([2]; D +4, radish) [g a.i./ha]",LC50 [3] [µg/mL],LC90 [3],"LD50 ([4]; D +7, bean) [g a.i./ha]","LD90 ([4]; D +7, bean)","LD50 ([4]; D +9, bean) [g a.i./ha]","LD90 ([4]; D +9, bean)","LD50 ([4]; D +14, bean) [g a.i./ha]","LD90 ([4]; D +14, bean)",also measured
"CN(C)C1CSSSC1.Cl [Thiocyclam HCl, N,N-dimethyl-1,2,3-trithian-5-ylamine hydrochloride]","251,759 μg of a.i./ml of diet",12.04,30.51,7.66,27.07,2.57,10.80 μg of a.i./ml of diet,2.22,"1,899 g a.i./ha",2.23,"4,905 g a.i./ha",0.82,"7,910 g a.i./ha","LC50 ([1]; 72 h, mortality 3 days after treatment (D + 3), diet surface incorporation): 8990 µg/mL; LC90 compared to cartap ([1]; example 2, comparison in words): more than three times lower; LC90 compared to thiocyclam oxalate ([1]; example 2, comparison in words): orders of magnitude smaller; times less at LC50 than cartap ([1]; example 2, ratio versus cartap): approximately 6 times; times less at LC50 than thiocyclam oxalate ([1]; example 2, ratio versus thiocyclam oxalate): approximately 20 times; LC50 and LC90 compared to thiocyclam oxalate ([3]; example 1, comparison in words): significantly lower concentrations than thiocyclam oxalate; times less at LC50 compared to cartap ([3]; example 1, ratio versus cartap): approximately 4 times; times less at LC90 compared to cartap ([3]; example 1, ratio versus cartap): approximately 9 times; LD90 compared to cartap ([4]; example 4, days 7 and 9): lower application concentration compared to cartap"
"CN(C)C(CSC(N)=O)CSC(N)=O [Cartap, S, S-[2-(dimethylamino)-1,3-propanediyl] dicarbamothioate, reference compound]","908,897 μg of a.i./ml of diet",<18.18,36.70,<18.18,16,10.1,104.80 μg of a.i./ml of diet,213.7,2.3 × 10^6 g a.i./ha,15.6,"4,566.3 g a.i./ha",10.4,910.4 g a.i./ha,
